Patent publication US6348478B1, “Biphenylamidine derivatives” (Teijin Limited, priority 1997, dated 2002)
Where “and” joins values, the source holds several entries; their conditions need not be identical. Equal entries are not always repeated.

Experiments:
human FXa = human FXa (Homo sapiens, UniProt P00742); assay: Measurement of activated blood coagulation factor X (FXa)-inhibiting action; assay type: biochemical; conditions: substrate S-2765, 30 minutes incubation, A405, read-out: FXa inhibition activity (IC50)
human FXa, sequence (P00742 235-488 limits assumed): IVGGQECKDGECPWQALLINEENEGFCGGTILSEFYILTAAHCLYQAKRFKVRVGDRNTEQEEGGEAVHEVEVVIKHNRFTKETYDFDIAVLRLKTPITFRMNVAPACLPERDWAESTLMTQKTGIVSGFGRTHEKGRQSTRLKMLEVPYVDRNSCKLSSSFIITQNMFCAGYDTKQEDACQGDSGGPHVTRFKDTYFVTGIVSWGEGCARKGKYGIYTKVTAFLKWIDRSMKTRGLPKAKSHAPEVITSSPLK
human FXa, sequence (P00742 41-179 partner limits assumed): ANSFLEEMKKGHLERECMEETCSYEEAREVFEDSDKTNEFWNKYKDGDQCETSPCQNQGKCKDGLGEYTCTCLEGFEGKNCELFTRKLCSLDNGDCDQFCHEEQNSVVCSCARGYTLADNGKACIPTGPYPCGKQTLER
Experimental: Measurement of activated blood coagulation factor X (FXa)-inhibiting action
(§1) A specimen was dissolved in water or in water containing an organic solvent (DSMO, ethanol or methanol) in a proper concentration to prepare a specimen. 70 μl of the specimen stepwisely diluted with water was mixed with 90 μl of a 100 mM Tris buffer solution (pH 8.4), 20 μl of a 50 mM Tris buffer solution (pH 8.4) of 50 mU/ml human FXa, and a 2 mM substrate (Daiichikagaku. S-2765), incubated for 30 minutes, mixed with 50 μl of 50% acetic acid, and then subjected to the measurement of absorbance (A405). A blank was prepared by adding the Tris buffer solution instead of the FXa, and a control was prepared by adding water instead of the specimen. A 50% inhibition activity (IC50) was determined, and used as the index of the FXa-inhibiting action.

human thrombin = target: T1, human thrombin (Homo sapiens, UniProt P00734); assay: Measurement of thrombin inhibition action; assay type: biochemical; conditions: substrate S-2238, 30 minutes incubation, A405
T1 construct: 1U/ml human thrombin
Experimental: Measurement of thrombin inhibition action
as §1, with “70” for “A specimen was dissolved in water or in water containing an organic solvent (DSMO, ethanol or methanol) in a proper concentration to prepare a specimen. 70”, “1U/ml” for “50 mU/ml”, “thrombin,” for “FXa,”, “S-2238),” for “S-2765),”, “thrombin inhibition” for “FXa-inhibiting”

| Compound | IC50 (human FXa) | IC50 (human thrombin) |
| --- | --- | --- |
| COC(=O)c1cc(COc2cccnc2N)cc(-c2cccc(C(=N)N)c2)c1 [Example 11] | 10 to 100 µM | > 100 µM |
| COC(=O)c1cc(COc2cccc(CO)c2)cc(-c2cccc(C(=N)N)c2)c1 [Example 15] | 1 to 10 µM and 10 to 100 µM | – |
| COC(=O)c1cc(COc2cccc(CCN)c2)cc(-c2cccc(C(=N)N)c2)c1 [Example 9] | 1 to 10 µM | > 100 µM |
| N=C(N)c1cccc(-c2cc(COc3cccc(CN)c3)cc(C(=O)O)c2)c1 [Example 6] | 1 to 10 µM | > 100 µM |
| CC(C)c1ccc(OCc2cc(C(=O)O)cc(-c3cccc(C(=N)N)c3)c2)cc1 [Example 4] | 1 to 10 µM | – |
| COC(=O)c1cc(COc2ccc(C(C)C)cc2)cc(-c2cccc(C(=N)N)c2)c1 [Example 3] | 1 to 10 µM | – |
| COC(=O)c1cc(COc2cccc(N)c2)cc(-c2cccc(C(=N)N)c2)c1 [Example 13] | – | > 100 µM |
| COC(=O)c1cc(COc2cccc(CN)c2)cc(-c2cccc(C(=N)N)c2)c1 [Example 5] | 1 to 10 µM | > 100 µM |
| COC(=O)c1cc(COc2ccc(C)cc2N)cc(-c2cccc(C(=N)N)c2)c1 [Example 12] | 1 to 10 µM | > 100 µM |
| N=C(N)c1cccc(-c2cc(COc3cccc(CCN)c3)cc(C(=O)O)c2)c1 [Example 10] | 1 to 10 µM | > 100 µM |

The next lines start with the values.

| IC50 (human FXa) | IC50 (human thrombin) | Compound |
| --- | --- | --- |
| 0.1 to 1 µM | – | COC(=O)c1cc(COc2ccc3c(c2)CNC3)cc(-c2cccc(C(=N)N)c2)c1 [Example 18] |
| 1 to 10 µM | – | COC(=O)c1cc(COCc2ccccc2)cc(-c2cccc(C(=N)N)c2)c1 [Example 23] |
| 0.1 to 1 µM | 10 to 100 µM | COC(=O)c1cc(COc2ccc3c(c2)CN(C(C)=N)C3)cc(-c2cccc(C(=N)N)c2)c1 [Example 19] |
| – | 10 to 100 µM | CNc1ccc(OCc2cc(C(=O)OC)cc(-c3cccc(C(=N)N)c3)c2)cc1 [Example 16] |
| 10 to 100 µM | > 100 µM | COC(=O)c1cc(-c2cccc(C(=N)N)c2)ccc1COc1cccc(CN)c1 [Example 20] |
